From patent US20120004289A1, “ANNEXIN A11 AND ASSOCIATED GENES AS BIOMARKERS FOR CANCER” (The Johns Hopkins University, priority 2009, published 2012)

What was measured:
Type in all cases: cell-based, human
[1] = tested on: annexin A11 mRNA; assay: siRNA knockdown of annexin A11, real-time PCR of mRNA in 2008 cells; conditions: siRNA 40 nM, 3 days, compared with negative control cells (-Ctr), P<0.05
Protocol: (§1) (A and B) Effect of silencing of annexin A11 using different siRNA. 2008 cells were treated with one (A1 or A2 or A3) or a combination (A1-3) of three stealth RNA against annexin A11 or nonspecific sequence (-Ctr) at the concentration of 40 nM or without treatment (Wt) for 3 days. Immunoblot analysis (A) and real-time PCR (B) were performed to confirm the suppression of annexin A11 mRNA and protein expressions in the cells. β-Actin was taken as an additional control for equal sampling in immunoblot analysis (A). The relative mRNA expression level of each sample was normalized to GAPDH expression and compared with -Ctr sample. *P<0.05 (B). (C) Dose-dependent silencing of annexin A11 by siRNA. 2008 cells were treated with RNAi (A1) at the indicated concentrations of 40, 20, 10, or 5 nM or -Ctr at the concentration of 40 nM or without treatment (Wt) for 3 days. Immunoblot analysis (C) was performed to check the annexin A11 expression levels in the cells. β-Actin was taken as an additional control for equal sampling. (D) Duration of silencing of annexin A11 using siRNA. 2008 or HEY cells were treated with RNAi (A1) or -Ctr at the concentration of 40 nM. Immunoblot analysis was performed to analyze the annexin A11 expression levels in these cells.
All stealth RNA interference (RNAi) sequences were purchased from Invitrogen. The three stealth RNAi that targeted different annexin A11 sequences were as follows: A1, […]; A2, […]; and A3, […]. The stealth RNAi negative control duplex (medium GC) was used as a negative control. […] The optimized dose and duration of RNAi silencing were experimentally determined. […]
(Invitrogen) according to the manufacturer's instructions. […] An experiment consisted of triplicate amplification reactions for each gene product being analyzed. […] The cycle threshold number (CT) was determined for each PCR using iQ5 Real-time PCR Detection System (Bio-Rad). […] Results are expressed as relative abundance of a specific mRNA between control and experimental sample (fold change, mean±SD).

[2] = tested on: annexin A11 protein; assay: siRNA knockdown of annexin A11, immunoblot analysis in 2008 cells; conditions: for annexin A11 protein expression (immunoblot): siRNA 40 nM, compared with strong expression in -Ctr and Wt cells
Protocol: as §1
All stealth RNA interference (RNAi) sequences were purchased from Invitrogen. The three stealth RNAi that targeted different annexin A11 sequences were as follows: A1, […]; A2, […]; and A3, […]. The stealth RNAi negative control duplex (medium GC) was used as a negative control. Transfection of annexin A11-specific siRNA and the negative control was performed using Lipofectamine 2000 (Invitrogen). The optimized dose and duration of RNAi silencing were experimentally determined. Briefly, cancer cells were seeded the day before siRNA transfection in either six-well plates or T25 flasks and were 30% to 50% confluent at the time of transfection. Stealth RNAi and Lipofectamine were diluted in Opti-MEM I Medium (Invitrogen), and 40 nM of the siRNA duplex was used in each transfection mixture. 2008 or HEY cells were transfected with one annexin A11-specific siRNA (A1 or A2 or A3) or a combination of three different siRNA at the equal amount (A1-3) or negative control for 2 to 3 days and were then harvested for the downstream experiments.
The denatured samples were electrophoresed on 4% to 15% gradient SDS-PAGE gels (Bio-Rad), electroblotted on nitrocellulose membranes (Bio-Rad), and probed with the respective antibodies against different targets. Both anti-annexin A11 (1:10,000) and anti-annexin A5 (1:2000) monoclonal antibodies were purchased from BD Biosciences (San Jose, Calif.). Rabbit anti-human HMOX1 polyclonal antibody (1:500) and mouse polyclonal anti-LY6D (1:500) were purchased from GenWay Biotech (San Diego, Calif.) and Novus Biologicals (Littleton, Colo.), respectively. The bound antibodies were visualized with horseradish peroxidase-conjugated secondary antibodies and enhanced chemiluminescence (Amersham, Pittsburgh, Pa.). Actin in the corresponding cell lysates was used as an additional control to show equal loading.

[3] = tested on: 2008 cells; assay: Cell colony formation assay after annexin A11 siRNA, 2008 cells; conditions: siRNA 40 nM 3 days, colonies counted six days after plating, P<0.01
Protocol: (§2) (A and B) Cell proliferation assay. 2008 (A) or HEY (B) cells were treated with RNAi (A1) or -Ctr at the concentration of 40 nM for 3 days, respectively, and then plated at 3000 viable cells per well into 96-well plates. Every 24 hours, one plate was subjected to assay by CCK-8 kit. The data in each time point are averaged values from eight replicates (P<0.05). (C) Colony formation assay. 2008 cells were treated in the same way as above for 3 days and then plated at 3000 viable cells per well into six-well plates. Six days after plating, cells were fixed with methanol and stained with 0.1% crystal violet and colonies were counted. The experiment was performed in six replicates (P<0.01). (D) Cell cytotoxicity assay. 2008 cells were treated in same way as above for 3 days and then plated at 3000 viable cells per well into 96-well plates. […]
2008 and HEY cells were cultured in T25 flasks and transfected with A1 or negative control for 3 days. Cells were then collected, counted, and plated at 3000 viable cells per well into six-well plates. Six days after plating, cells were fixed with methanol and stained with 0.1% crystal violet, and colonies were counted under the light microscope. […]

[4] = tested on: HEY cells; assay: Cell proliferation assay (CCK-8) after annexin A11 siRNA, HEY cells; conditions: siRNA 40 nM 3 days, compared with negative control transfectants, P<0.05
Protocol: as §2
(§3) Cell Counting Kit-8 (CCK-8; Dojindo, Gaithersburg, Md.) was used in cell proliferation assay. […] Cells were then collected by trypsinization, counted by using a hemacytometer with trypan blue dye, and plated at 3000 viable cells per well into 96-well tissue culture plates in a final volume of 100 μl. […] The absorbance at 450 nm was measured with a microplate reader (EL 312e; Biotek Instruments, Winooski, Vt.). […]

[5] = tested on: annexin A11 protein; assay: siRNA knockdown of annexin A11, immunoblot analysis in HEY cells; conditions: after 2 days of siRNA transfection at 40 nM
Protocol: as §1, with “Immunoblot analysis was performed to analyze the annexin A11 expression levels in these cells.” left out
All stealth RNA interference (RNAi) sequences were purchased from Invitrogen. […] The optimized dose and duration of RNAi silencing were experimentally determined. […]

[6] = tested on: 2008 cells; assay: Cell proliferation assay (CCK-8) after annexin A11 siRNA, 2008 cells; conditions: siRNA 40 nM 3 days, compared with negative control transfectants, P<0.05
Protocol: as §2, §3

Substance	down-regulation in annexin A11 mRNA expression levels [1]	annexin A11 protein expression (immunoblot) ([2]; 3 days)	colony formation ability [3]	decrease in rate of proliferation [4]	silencing effect on annexin A11 expression by concentration (immunoblot) ([2]; 5 to 40 nM, 3 days)	duration of silencing of annexin A11 protein expression ([2]; after 3 days of siRNA transfection at 40 nM)	duration of silencing of annexin A11 protein expression [5]	decrease in rate of proliferation [6]
A2: stealth RNAi (Invitrogen) targeting annexin A11, CCUCCUGGACAUCAGAUCAGAGUAU (chemistry not given here)	three-fold to four-fold	barely detectable						
A3: stealth RNAi (Invitrogen) targeting annexin A11, GGGAUUACCGGAAGAUUCUGCUGAA (chemistry not given here)	three-fold to four-fold	barely detectable						
A1: stealth RNAi (Invitrogen) targeting annexin A11, GGCCGUGGUGAAAUGUCUCAAGAAU (chemistry not given here)	three-fold to four-fold	barely detectable	greatly damaged	34%	dose-dependent silencing effect	≥ 10 days	≥ 7 days	40%
